According to ChEMBL document CHEMBL5120892, “Identification and Characterization of Natural and Semisynthetic Quinones as Aurora Kinase Inhibitors” (J Nat Prod, 2022):
Activity calls are given as the source filed them. The calls are words filed in the database; no cut-off is given here.

Assays:
HCT-116 [1] = assay: Antiproliferative activity against human HCT-116 cells measured after 72 hrs by SRB assay; assay type: functional
HCC1954 = assay: Antiproliferative activity against human HCC1954 cells measured after 72 hrs by SRB assay; assay type: functional
CAL-51 = assay: Antiproliferative activity against human CAL-51 cells measured after 72 hrs by SRB assay; assay type: functional
MV4-11 = assay: Antiproliferative activity against human MV4-11 cells measured after 72 hrs by SRB assay; assay type: functional
BT-549 = assay: Antiproliferative activity against human BT-549 cells measured after 72 hrs by SRB assay; assay type: functional
MOLM-13 = assay: Antiproliferative activity against human MOLM-13 cells measured after 72 hrs by SRB assay; assay type: functional
MCF7 = assay: Antiproliferative activity against human MCF7 cells measured after 72 hrs by SRB assay; assay type: functional
K562 = assay: Antiproliferative activity against human K562 cells measured after 72 hrs by SRB assay; assay type: functional
Aurora kinase B [2] = target: T1, Aurora kinase B (Homo sapiens, UniProt Q96GD4); assay: Inhibition of Aurora B in human HCT-116 cells using histone H3 as substrate measured after 2 hrs by Western blot analysis; assay type: cell-based
T1 sequence (Q96GD4 whole entry): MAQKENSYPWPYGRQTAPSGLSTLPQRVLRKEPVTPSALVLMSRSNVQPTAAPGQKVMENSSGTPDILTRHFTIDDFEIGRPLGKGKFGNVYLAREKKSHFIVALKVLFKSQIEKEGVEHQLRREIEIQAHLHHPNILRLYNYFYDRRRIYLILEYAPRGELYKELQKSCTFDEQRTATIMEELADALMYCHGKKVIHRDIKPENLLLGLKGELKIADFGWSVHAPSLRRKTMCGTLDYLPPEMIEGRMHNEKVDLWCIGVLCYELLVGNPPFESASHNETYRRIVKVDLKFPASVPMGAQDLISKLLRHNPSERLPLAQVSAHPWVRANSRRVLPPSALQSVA

HCT-116 [3] = assay: Induction of apoptosis in human HCT-116 cells assessed as late apoptotic cells at 2.5 uM measured after 24 hrs by Annexin V-FITC/propidium iodide staining based flow cytometry (reference value: 0.02%); assay type: functional
A549 [4] = assay: Induction of abnormal mitosis in human A549 cells assessed as formation of single spindle pole at 3 to 6 uM measured after 24 hrs by CDK5Rap2 staining based immunofluorescence assay; assay type: functional, cell-based; settings: dose 3-6 µM
HCT-116 [5] = assay: Induction of apoptosis in human HCT-116 cells assessed as early apoptotic cells at 2.5 uM measured after 24 hrs by Annexin V-FITC/propidium iodide staining based flow cytometry (reference value: 2.92%); assay type: functional
Aurora kinase B [6] = target: T1, Aurora kinase B; assay: Inhibition of Aurora B (unknown origin)
A549 [7] = assay: Induction of abnormal mitosis in human A549 cells assessed as formation of aberrant spindle assembly at 3 to 6 uM measured after 24 hrs by DAPI staining based immunofluorescence assay; assay type: functional, cell-based; settings: dose 3-6 µM
A549 [8] = assay: Induction of abnormal mitosis in human A549 cells assessed as formation of misaligned chromosome at 3 to 6 uM measured after 24 hrs by DAPI staining based immunofluorescence assay; assay type: functional, cell-based; settings: dose 3-6 µM
HCT-116 [9] = assay: Induction of apoptosis in human HCT-116 cells assessed as late apoptotic cells at 5 uM measured after 24 hrs by Annexin V-FITC/propidium iodide staining based flow cytometry (reference value: 0.02%); assay type: functional
Aurora kinase A [10] = target: T2, Aurora kinase A (Homo sapiens, UniProt O14965); assay: Inhibition of Aurora A (122 to 403 residues) (unknown origin) expressed in Escherichia coli Rosetta 2(DE3) assessed as reduction in TACC3 phosphorylation at Ser 558 residue using TACC3 (519 to 838 residues) as substrate measured after 30 mins by Western blot analysis
T2 sequence (O14965 whole entry): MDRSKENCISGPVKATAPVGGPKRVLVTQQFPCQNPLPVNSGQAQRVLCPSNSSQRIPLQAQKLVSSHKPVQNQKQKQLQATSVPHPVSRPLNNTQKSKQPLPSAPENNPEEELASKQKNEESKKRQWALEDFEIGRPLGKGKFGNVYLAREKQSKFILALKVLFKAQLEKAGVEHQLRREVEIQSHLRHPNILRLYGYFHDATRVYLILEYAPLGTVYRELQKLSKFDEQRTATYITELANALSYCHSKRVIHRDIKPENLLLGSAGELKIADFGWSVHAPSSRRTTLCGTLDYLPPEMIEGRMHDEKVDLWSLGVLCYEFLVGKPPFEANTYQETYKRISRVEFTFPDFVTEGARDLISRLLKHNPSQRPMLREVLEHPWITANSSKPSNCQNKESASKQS

Homo sapiens [11] = organism: Homo sapiens; assay: Selectivity ratio of IC50 for inhibition of Aurora B (unknown origin) to IC50 for inhibition of Aurora A (unknown origin) expressed in Escherichia coli Rosetta 2(DE3)
[12] = target: T3, Aurora kinase A (Homo sapiens) (UniProt O14965); assay: Inhibition of Aurora A in human HCT-116 cells using TACC3 as substrate measured after 2 hrs by Western blot analysis; assay type: cell-based; settings: dose 1.56-50 µM, DDE = dose-dependent effect
T3 sequence (whole entry): T2 sequence (O14965 whole entry)

[13] = target: T3, Aurora kinase A (Homo sapiens); assay: Binding affinity to Aurora A (unknown origin) expressed in Escherichia coli Rosetta 2(DE3) at 1 mM by STD NMR analysis
[14] = target: T3, Aurora kinase A (Homo sapiens); assay: Inhibition of Aurora A (122 to 403 residues) (unknown origin) expressed in Escherichia coli Rosetta 2(DE3) assessed as reduction in TACC3 phosphorylation at Ser 558 residue at 25 uM using TACC3 (519 to 838 residues) as substrate measured after 30 mins by Western blot analysis
HCT-116 [15] = assay: Induction of apoptosis in human HCT-116 cells assessed as early apoptotic cells at 5 uM measured after 24 hrs by Annexin V-FITC/propidium iodide staining based flow cytometry (reference value: 2.92%); assay type: functional
A549 [16] = assay: Induction of abnormal mitosis in human A549 cells assessed as increase in abrogated mitotic cells at 3 to 6 uM measured after 24 hrs by DAPI staining based immunofluorescence assay; assay type: functional, cell-based; settings: dose 3-6 µM
HCT-116 [17] = assay: Induction of apoptosis in human HCT-116 cells assessed as increase in cleaved PARP expression at 1.25 to 5 uM measured after 24 hrs by Western blot analysis; assay type: functional, cell-based; settings: dose 1.25-5 µM
Aurora kinase A [18] = target: T2, Aurora kinase A; assay: Inhibition of Aurora A (unknown origin)
Homo sapiens [19] = organism: Homo sapiens; assay: Selectivity ratio of IC50 for inhibition of Aurora B (unknown origin) to IC50 for inhibition of Aurora A (unknown origin)

Compound	GI50 (HCT-116 [1])	GI50 (HCC1954)	GI50 (CAL-51)	GI50 (MV4-11)	GI50 (BT-549)	GI50 (MOLM-13)	GI50 (MCF7)	GI50 (K562)	IC50 (Aurora kinase B [6])	inhibition [14]	IC50 (Aurora kinase A [18])	Ratio IC50 (Homo sapiens [19])	further results
COC(=O)/C=C(/CC1=C(CCC(=O)CC2(C)OCCO2)C(=O)c2ccccc2C1=O)OC	21.5 µM	19.1 µM	16.3 µM	43.1 µM	24 µM	16.8 µM	28.3 µM	9.7 µM					
CC=CCC1=C(O)C(=O)c2ccccc2C1=O	41.5 µM	> 100 µM	54.1 µM	79.1 µM	47 µM	> 100 µM	> 100 µM	> 100 µM					
COc1ccc2c(c1)C(=O)C=CC2=O	8.3 µM	2.2 µM	2.8 µM	4.3 µM	34 µM	4.1 µM	28.9 µM	2.9 µM					
CC1=CC(=O)c2cccc(O)c2C1=O	0.46 µM	0.34 µM	2.5 µM	26.5 µM	2.7 µM	4.1 µM	1.4 µM	1.3 µM					
O=C1C=CC(=O)c2c(O)ccc(O)c21 [NAPHTHAZALIN]	0.16 µM	0.49 µM	0.56 µM	0.19 µM	0.43 µM	0.28 µM	0.43 µM	1.7 µM	0.35 µM	Active			inhibition (Aurora kinase B [2]): Active; Activity (HCT-116 [3]): 3.78%; Activity (A549 [4]): Active; Activity (HCT-116 [5]): 6.85%; Activity (A549 [7]): Active; Activity (A549 [8]): Active; Activity (HCT-116 [9]): 21.56%; IC50 (Aurora kinase A [10]): 0.09 µM; Ratio IC50 (Homo sapiens [11]): 3.89; inhibition [12]: Dde; Activity [13]: Active; Activity (HCT-116 [15]): 6.36%; Activity (A549 [16]): Active; Activity (HCT-116 [17]): Active
O=C1c2ccccc2C(=O)c2c(O)c(CCl)cc(O)c21	0.22 µM	0.61 µM	0.15 µM	6.3 µM	0.4 µM	3.7 µM	0.59 µM	2.8 µM	0.41 µM		0.12 µM	3.42	Activity (HCT-116 [3]): 8.31%; Activity (A549 [4]): Active; Activity (HCT-116 [5]): 11.27%; Activity (A549 [7]): Active; Activity (A549 [8]): Active; Activity (HCT-116 [9]): 53.93%; Activity [13]: Active; Activity (HCT-116 [15]): 17.6%; Activity (A549 [16]): Active; Activity (HCT-116 [17]): Active
CC1(C)CCC2=C(O1)c1ccccc1C(=O)C2=O [LAPACHONE]	12.9 µM	31.8 µM	8.3 µM	70.1 µM	11.4 µM	34.5 µM	12.2 µM	41 µM					
CC1=C(Br)C(=O)c2ccccc2C1=O	3.4 µM	1.4 µM	1.5 µM	3.3 µM	4.9 µM	< 0.01 µM	19.1 µM	3.4 µM	0.96 µM	Active	0.09 µM	10.7	
O=C1C=C(Cl)C(=O)c2c(O)cccc21	4.1 µM	0.99 µM	12.7 µM	0.18 µM	9.3 µM	1.7 µM	15.6 µM	3.2 µM	1.8 µM	Active	0.15 µM	12	
O=C1C=CC(=O)c2c(O)cccc21 [JUGLONE]	4.2 µM	6.44 µM	> 100 µM	0.06 µM	> 100 µM	21.9 µM	32.6 µM	> 100 µM	0.62 µM	Active	0.05 µM	12.4	
CC1=CC(=O)c2c(O)cc(C)c(C(=O)C(Cl)Cl)c2C1=O	4.3 µM	1.6 µM	1.9 µM	0.86 µM	8.5 µM	3.7 µM	25.8 µM	3.7 µM					
